Experimental data from patent US6737383B1, “Herbicidal oxadiazolidines” (priority 1999, dated 2004).

Tests used:
cocklebur = assay: Test B pre/postemergence cocklebur; assay type: in vivo, Xanthium strumarium
How it was run: (§1)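 Response is a visual 0-to-10 score relative to untreated plants, where 0 means no effect and 10 means complete control, taken twelve to sixteen days after application. Treatments went onto soil at planting and onto foliage of 1- to 4-leaf plants, using a surfactant-containing non-phytotoxic solvent.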

soybean = assay: Test B pre/postemergence soybean; assay type: in vivo, Glycine max
How it was run: as §1

sugar beet = assay: Test B pre/postemergence sugar beet; assay type: in vivo, Beta vulgaris
How it was run: as §1

wheat = assay: Test B pre/postemergence wheat; assay type: in vivo, Triticum aestivum
How it was run: as §1

rape = assay: Test B pre/postemergence rape; assay type: in vivo, Brassica napus
How it was run: as §1

corn = assay: Test B pre/postemergence corn; assay type: in vivo, Zea mays
How it was run: as §1

smallflower flatsedge = assay: Test B flood test smallflower flatsedge; assay type: in vivo, Cyperus difformis
How it was run: (§2)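 Plants were grown to the 2-leaf stage before treatment with test chemical, then held in a greenhouse for twelve to sixteen days. Injury was visually rated against untreated controls on a 0–10 scale, where 0 is no effect and 10 is complete control.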

velvetleaf = assay: Test B pre/postemergence velvetleaf; assay type: in vivo, Abutilon theophrasti
How it was run: as §1

crabgrass = assay: Test B pre/postemergence crabgrass; assay type: in vivo, Digitaria sanguinalis
How it was run: as §1

morningglory = assay: Test B pre/postemergence morningglory; assay type: in vivo, Ipomoea hederacea
How it was run: as §1

wild oat = assay: Test B pre/postemergence wild oat; assay type: in vivo, Avena fatua
How it was run: as §1

surinam grass = assay: Test B pre/postemergence surinam grass; assay type: in vivo, Brachiaria decumbens
How it was run: as §1

duck salad = assay: Test B flood test duck salad; assay type: in vivo, Heteranthera limosa
How it was run: as §2

blackgrass = assay: Test B pre/postemergence blackgrass; assay type: in vivo, Alopecurus myosuroides
How it was run: as §1

purple nutsedge = assay: Test B pre/postemergence purple nutsedge; assay type: in vivo, Cyperus rotundus
How it was run: as §1

giant foxtail = assay: Test B pre/postemergence giant foxtail; assay type: in vivo, Setaria faberii
How it was run: as §1

[1] = Postemergence, Rate 125 g/ha, scale of 0 to 10 where 0 is no effect and 10 is complete control
[2] = Preemergence, Rate 31 g/ha, visual rating, scale 0 to 10 (0 no effect, 10 complete control)
[3] = Preemergence, Rate 62 g/ha, scale 0 to 10 (0 no effect, 10 complete control)
[4] = Preemergence, Rate 125 g/ha, 0 is no effect, 10 is complete control
[5] = Preemergence, Rate 250 g/ha, scale 0 to 10, 0 is no effect, 10 is complete control
[6] = Preemergence, Rate 500 g/ha, scale 0 to 10 (0 no effect, 10 complete control)
[7] = Rate 31 g/ha, Postemergence, scale 0 to 10
[8] = Rate 62 g/ha, Postemergence, scale of 0 to 10 where 0 is no effect and 10 is complete control
[9] = Rate 250 g/ha, Postemergence, scale 0 to 10, 0 is no effect, 10 is complete control
[10] = Rate 500 g/ha, Postemergence, scale 0 to 10
[11] = Postemergence (flood test species), Rate 125 g/ha, scale of 0 to 10 where 0 is no effect and 10 is complete control
[12] = Rate 62 g/ha, Postemergence section, flood test species, scale of 0 to 10 where 0 is no effect and 10 is complete control
[13] = Rate 62 g/ha, headed Pre-emergence (flood test species), scale 0 to 10 (0 no effect, 10 complete control)
[14] = Rate 125 g/ha, Pre-emergence, flood test species, scale 0 to 10 where 0 is no effect and 10 is complete control
[15] = Rate 250 g/ha, Postemergence (flood test), scale 0 to 10, 0 is no effect, 10 is complete control
[16] = Rate 250 g/ha, Pre-emergence, flood-test species, scale 0 to 10, 0 is no effect, 10 is complete control
[17] = Rate 500 g/ha, listed under Postemergence (flood test species), scale 0 to 10

C=CCn1c(=O)on(C(=O)N(c2ccc(F)cc2)C(C)C)c1=O [Compound 146]
Cocklebur plant response rating (cocklebur; [1]): 2
Cocklebur plant response rating (cocklebur; [2]): 0
Cocklebur plant response rating (cocklebur; [3]): 0
Cocklebur plant response rating (0 to 10 scale) (cocklebur; [4]): 0
Cocklebur plant response rating (cocklebur; [5]): 0
Cocklebur plant response rating (cocklebur; [6]): 0
Cocklebur plant response rating (cocklebur; [7]): 0
Cocklebur plant response rating (cocklebur; [8]): 2
Plant response rating, Cocklebur (cocklebur; [9]): 3
Cocklebur plant response rating (cocklebur; [10]): 4
Soybean plant response rating (soybean; [1]): 6
Soybean plant response rating (soybean; [2]): 0
Soybean plant response rating (soybean; [3]): 0
Soybean plant response rating (0 to 10 scale) (soybean; [4]): 0
Soybean plant response rating (soybean; [5]): 2
Soybean plant response rating (soybean; [6]): 4
Soybean plant response rating (soybean; [8]): 3
Plant response rating, Soybean (soybean; [9]): 6
Soybean plant response rating (soybean; [10]): 8
Sugarbeets plant response rating (sugar beet; [1]): 3
Sugarbeets plant response rating (sugar beet; [2]): 5
Sugarbeets plant response rating (sugar beet; [3]): 8
Sugarbeets plant response rating (0 to 10 scale) (sugar beet; [4]): 9
Sugarbeets plant response rating (sugar beet; [5]): 10
Sugarbeets plant response rating (sugar beet; [6]): 10
Sugarbeets plant response rating (sugar beet; [8]): 1
Plant response rating, Sugarbeets (sugar beet; [9]): 4
Sugarbeets plant response rating (sugar beet; [10]): 6
Wheat plant response rating (wheat; [1]): 2
Wheat plant response rating (wheat; [2]): 0
Wheat plant response rating (wheat; [3]): 2
Wheat plant response rating (0 to 10 scale) (wheat; [4]): 2
Wheat plant response rating (wheat; [5]): 8
Wheat plant response rating (wheat; [6]): 8
Wheat plant response rating (wheat; [8]): 0
Plant response rating, Wheat (wheat; [9]): 5
Wheat plant response rating (wheat; [10]): 6
Rape plant response rating (rape; [1]): 2
Rape plant response rating (rape; [2]): 0
Rape plant response rating (rape; [3]): 2
Rape plant response rating (0 to 10 scale) (rape; [4]): 10
Rape plant response rating (rape; [5]): 10
Rape plant response rating (rape; [6]): 10
Rape plant response rating (rape; [7]): 0
Rape plant response rating (rape; [8]): 2
Plant response rating, Rape (rape; [9]): 3
Rape plant response rating (rape; [10]): 5
Corn plant response rating (corn; [1]): 0
Corn plant response rating (corn; [2]): 0
Corn plant response rating (corn; [3]): 3
Corn plant response rating (0 to 10 scale) (corn; [4]): 5
Corn plant response rating (corn; [5]): 8
Corn plant response rating (corn; [6]): 9
Corn plant response rating (corn; [7]): 0
Corn plant response rating (corn; [8]): 0
Plant response rating, Corn (corn; [9]): 0
Corn plant response rating (corn; [10]): 0
S. Flatsedge plant response rating (smallflower flatsedge; [11]): 0
S. Flatsedge plant response rating (smallflower flatsedge; [12]): 0
S. Flatsedge plant response rating (smallflower flatsedge; [13]): 0
S. Flatsedge plant response rating (smallflower flatsedge; [14]): 0
Plant response rating, S. Flatsedge (smallflower flatsedge; [15]): 3
S. Flatsedge plant response rating (smallflower flatsedge; [16]): 0
S. Flatsedge plant response rating (smallflower flatsedge; [17]): 9
S. Flatsedge plant response rating (smallflower flatsedge; Rate 500 g/ha, Pre-emergence, flood test species, scale 0 to 10 (0 no effect, 10 complete control)): 1
Velvetleaf plant response rating (velvetleaf; [1]): 2
Velvetleaf plant response rating (velvetleaf; [2]): 3
Velvetleaf plant response rating (velvetleaf; [3]): 7
Velvetleaf plant response rating (0 to 10 scale) (velvetleaf; [4]): 7
Velvetleaf plant response rating (velvetleaf; [5]): 8
Velvetleaf plant response rating (velvetleaf; [6]): 8
Velvetleaf plant response rating (velvetleaf; [8]): 0
Plant response rating, Velvetleaf (velvetleaf; [9]): 6
Velvetleaf plant response rating (velvetleaf; [10]): 6
Crabgrass plant response rating (crabgrass; [1]): 9
Crabgrass plant response rating (crabgrass; [2]): 5
Crabgrass plant response rating (crabgrass; [3]): 8
Crabgrass plant response rating (0 to 10 scale) (crabgrass; [4]): 8
Crabgrass plant response rating (crabgrass; [5]): 9
Crabgrass plant response rating (crabgrass; [6]): 10
Crabgrass plant response rating (crabgrass; [7]): 5
Crabgrass plant response rating (crabgrass; [8]): 8
Plant response rating, Crabgrass (crabgrass; [9]): 9
Crabgrass plant response rating (crabgrass; [10]): 9
Morningglory plant response rating (morningglory; [1]): 5
Morningglory plant response rating (morningglory; [2]): 0
Morningglory plant response rating (morningglory; [3]): 2
Morningglory plant response rating (0 to 10 scale) (morningglory; [4]): 3
Morningglory plant response rating (morningglory; [5]): 3
Morningglory plant response rating (morningglory; [6]): 4
Morningglory plant response rating (morningglory; [7]): 2
Morningglory plant response rating (morningglory; [8]): 3
Plant response rating, Morningglory (morningglory; [9]): 8
Morningglory plant response rating (morningglory; [10]): 9
Wild oats plant response rating (wild oat; [1]): 3
Wild oats plant response rating (wild oat; [2]): 1
Wild oats plant response rating (wild oat; [3]): 9
Wild oats plant response rating (0 to 10 scale) (wild oat; [4]): 10
Wild oats plant response rating (wild oat; [5]): 10
Wild oats plant response rating (wild oat; [6]): 10
Wild oats plant response rating (wild oat; [8]): 2
Plant response rating, Wild oats (wild oat; [9]): 6
Wild oats plant response rating (wild oat; [10]): 7
B. signalgrass plant response rating (surinam grass; [1]): 8
B. signalgrass plant response rating (surinam grass; [2]): 7
B. signalgrass plant response rating (surinam grass; [3]): 9
B. signalgrass plant response rating (0 to 10 scale) (surinam grass; [4]): 9
B. signalgrass plant response rating (surinam grass; [5]): 10
B. signalgrass plant response rating (surinam grass; [6]): 10
B. signalgrass plant response rating (surinam grass; [7]): 0
B. signalgrass plant response rating (surinam grass; [8]): 4
Plant response rating, B. signalgrass (surinam grass; [9]): 8
B. signalgrass plant response rating (surinam grass; Rate 500 g/ha, Postemergence, scale of 0 to 10 where 0 is no effect and 10 is complete control): 9
Ducksalad plant response rating (duck salad; [11]): 3
Ducksalad plant response rating (duck salad; Rate 31 g/ha, Postemergence section (flood test species), scale 0 to 10): 0
Ducksalad plant response rating (duck salad; [12]): 2
Ducksalad plant response rating (duck salad; [13]): 0
Ducksalad plant response rating (duck salad; [14]): 0
Plant response rating, Ducksalad (duck salad; [15]): 5
Ducksalad plant response rating (duck salad; [16]): 0
Plant response rating, Ducksalad (duck salad; Rate 500 g/ha, headed Pre-emergence (flood test species), scale 0 to 10 (0 no effect, 10 complete control)): 1
Ducksalad plant response rating (duck salad; [17]): 6
Blackgrass plant response rating (blackgrass; [1]): 8
Blackgrass plant response rating (blackgrass; [2]): 7
Blackgrass plant response rating (blackgrass; [3]): 8
Blackgrass plant response rating (0 to 10 scale) (blackgrass; [4]): 10
Blackgrass plant response rating (blackgrass; [5]): 10
Blackgrass plant response rating (blackgrass; [6]): 10
Blackgrass plant response rating (blackgrass; [7]): 4
Blackgrass plant response rating (blackgrass; [8]): 8
Plant response rating, Blackgrass (blackgrass; [9]): 8
Blackgrass plant response rating (blackgrass; [10]): 8
Nutsedge plant response rating (purple nutsedge; [1]): 0
Nutsedge plant response rating (purple nutsedge; [2]): 0
Nutsedge plant response rating (purple nutsedge; [3]): 0
Nutsedge plant response rating (0 to 10 scale) (purple nutsedge; [4]): 0
Nutsedge plant response rating (purple nutsedge; [5]): 0
Nutsedge plant response rating (purple nutsedge; [6]): 3
Nutsedge plant response rating (purple nutsedge; [7]): 0
Nutsedge plant response rating (purple nutsedge; [8]): 0
Plant response rating, Nutsedge (purple nutsedge; [9]): 0
Nutsedge plant response rating (purple nutsedge; [10]): 6
Giant foxtail plant response rating (giant foxtail; [1]): 9
Giant foxtail plant response rating (giant foxtail; [2]): 9
Giant foxtail plant response rating (giant foxtail; [3]): 10
Giant foxtail plant response rating (0 to 10 scale) (giant foxtail; [4]): 10
Giant foxtail plant response rating (giant foxtail; [5]): 10
Giant foxtail plant response rating (giant foxtail; [6]): 10
Giant foxtail plant response rating (giant foxtail; [7]): 3
Giant foxtail plant response rating (giant foxtail; [8]): 8
Plant response rating, Giant foxtail (giant foxtail; [9]): 9
Giant foxtail plant response rating (giant foxtail; [10]): 9
